These results are taken from US5932743A, “Methods for the solid phase synthesis of substituted indole compounds” (American Home Products Corporation, priority 1998, dated 1999).

The experiment concerns the target T1, human estrogen receptor (Homo sapiens, UniProt P03372).
T1 construct: expressed in transfected cells; host or cells: Chinese Hamster Ovary cells (CHO), stably transfected
T1 sequence (P03372 1-595): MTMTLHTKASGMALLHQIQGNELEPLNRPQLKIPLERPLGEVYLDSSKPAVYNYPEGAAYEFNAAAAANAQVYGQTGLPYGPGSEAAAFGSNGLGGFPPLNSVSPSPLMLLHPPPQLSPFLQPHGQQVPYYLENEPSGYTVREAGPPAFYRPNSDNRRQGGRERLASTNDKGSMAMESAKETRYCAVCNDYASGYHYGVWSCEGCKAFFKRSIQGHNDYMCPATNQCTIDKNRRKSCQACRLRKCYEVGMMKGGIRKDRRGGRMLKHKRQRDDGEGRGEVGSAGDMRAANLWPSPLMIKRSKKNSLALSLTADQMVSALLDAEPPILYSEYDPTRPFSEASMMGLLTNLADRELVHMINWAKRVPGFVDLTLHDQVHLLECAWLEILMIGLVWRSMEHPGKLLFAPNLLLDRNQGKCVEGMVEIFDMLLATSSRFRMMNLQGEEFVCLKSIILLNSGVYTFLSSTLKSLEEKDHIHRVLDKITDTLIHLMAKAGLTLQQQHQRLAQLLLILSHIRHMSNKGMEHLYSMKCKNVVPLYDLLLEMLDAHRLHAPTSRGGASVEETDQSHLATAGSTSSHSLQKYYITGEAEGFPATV
The experiment in a line: 2X VIT ERE Transfection Assay (estrogen receptor assay; luciferase reporter activity compared to 17β-estradiol in CHO cells stably transfected with the human estrogen receptor). In kind it is cell-based. Conditions: 1 μM compound. On the procedure: Enhancement of luciferase gene expression in this model is dependent upon estrogen receptor (ER) interaction with a vitellogenin gene estrogen responsive element (ERE) capable of enhancing basal promoter activity. This is a sensitive and rapid methodology to assess estrogenic/antiestrogenic potency of compounds.
48 h prior to treatment the growth medium is replaced with DMEM lacking phenol red+10% dextran coated charcoal stripped FBS (treatment medium). Cells are plated at a density of 5000 cells/well in 96-well plates containing 200 μL of medium/well.
20 μL of this mixture is added to each well of cells and remains on the cells for 16 h. […] Each treatment condition is performed on 8 wells (n=8) which are incubated for 24 h prior to luciferase assay.
The data is logged and automatically sent to a JMP statistical program for analysis. A hard copy printout is also produced at the time of the assay.
A plate containing a standard curve (0.1 to 1.5 milliunits in triplicate) is set up for each experimental run. The plates are analyzed on a Molecular Devices spectrophotometric plate reader at 410 nm. The optical densities for the unknowns are converted to milliunits of activity by mathematical extrapolation from the standard curve. […] The mean and standard deviation is determined from a n=8 for each treatment.

The structures appear in SMILES notation.

As to `CCOC(=O)Cn1c(-c2ccccc2)c(C2=C(C(=O)OC)CCC2)c2ccc(C(=O)O)cc21` [Example 12, 1-Ethoxycarbonylmethyl-3-(2-methoxycarbonyl-cyclopent-1-enyl)-2-phenyl-1H-indole-6-carboxylic Acid], the “estrogenic classification / activity in words” value is on record as “estrogenic”.
